Columns and labels:
[1] = Dissolution test (USP XXI dissolution tester) of oxypurinol sodium monohydrate and formulations in 0.1 N hydrochloric acid, spectrophotometric at 245 nm; format: physicochemical; conditions: for Dissolved amount of active substance (cumulated values): 0.1 N HCl, 37° C.
Method: The dispersion of solids containing oxypurinol was mixed with the adjuvants indicated, and pressed to give tablets having a content of 150 mg of active substance. Two tablets, corresponding to 300 mg of oxypurinol sodium monohydrate, were tested for liberation of active substance.
(§1) The forms according to the invention were tested for solubility and rate of dissolution, respectively, in comparison to crystalline oxypurinol sodium monohydrate finely powdered in a mortar.
United States Pharmacopoeia (USP XXI)
0.1 N hydrochloric acid
Measurements were effected spectrophotometrically at 245 nm.

[2] = Solubility as a function of pH value and time as compared to crystalline active substance; format: physicochemical; conditions: solids dispersion is test 3; for solubility at 1 h: 60 minutes
Method: as §1
Solubility according to example 1 (test 3) as a function of pH value and
as compared to crystalline active substance (values in mg/liter)

[3] = Solubility and pH of aqueous solutions (background statements); format: physicochemical
[4] = cited from earlier work
[5] = associated with sparing solubility; cited from earlier work

O=c1[nH]c(=O)c2c[nH]nc2[nH]1 [oxypurinol sodium monohydrate, Oxypurinol sodium monohydrate]
solubility at 5 min ([1]; 0.1 n hcl, after 5 minutes): 43 µg/mL | solubility at 1 h ([1]; 0.1 n hcl, after 60 minutes): 142 µg/mL | solubility at 24 h ([1]; 0.1 n hcl, after 24 hours, read-out: maximum solubility): ~280 µg/mL | solubility at 48 h ([1]; 0.1 n hcl, after another 24 hours, read-out: solubility as a constant for the substance): ~260 µg/mL | Dissolved amount of active substance (cumulated values) ([1]; 5 min): 43 mg/L | Dissolved amount of active substance (cumulated values) ([1]; 10 min): 62 mg/L | Dissolved amount of active substance (cumulated values) ([1]; 20 min): 88 mg/L | Dissolved amount of active substance (cumulated values) ([1]; 30 min): 115 mg/L | Dissolved amount of active substance (cumulated values) ([1]; 45 min): 126 mg/L | Dissolved amount of active substance (cumulated values) ([1]; 60 min): 142 mg/L | Dissolved amount of active substance (cumulated values) ([1]; 180 min): 207 mg/L | Dissolved amount of active substance (cumulated values) ([1]; 24 hrs): 280 mg/L | Dissolved amount of active substance (cumulated values) ([1]; 48 hrs): 263 mg/L | rate of dissolution ([1]; measurement time of 5 minutes): about 43 mg/5 min | solubility at 5 min ([2]; pH = 1.5): 43 µg/mL | solubility at 10 min ([2]; pH = 1.5): 62 µg/mL | solubility at 5 min ([2]; pH = 3.0): 81 µg/mL | solubility at 10 min ([2]; pH = 3.0): 110 µg/mL | solubility at 1 h ([2]; pH = 3.0): 222 µg/mL | solubility at 5 min ([2]; pH = 4.5): 85 µg/mL | solubility at 10 min ([2]; pH = 4.5): 110 µg/mL | solubility at 1 h ([2]; pH = 4.5): 243 µg/mL | solubility at 5 min ([2]; pH = 6.5): 243 µg/mL | solubility at 10 min ([2]; pH = 6.5): 261 µg/mL | solubility at 1 h ([2]; pH = 6.5): 290 µg/mL | pH value of aqueous solutions ([3]; aqueous solution): 9.5 | solubility ([3]; water, 25° C., read-out: concentration permitted in aqueous solutions): ~15000 µg/mL

O=c1[nH]c(=O)c2c[nH]nc2[nH]1 [Oxypurinol, 4,6-dihydroxypyrazolo[3,4-d]pyrimidine]
solubility in water and digestive juice [4]: sparingly soluble | absorbability [5]: insufficient absorbability

— US5368864A, “Formulation of oxypurinol and/or its alkali and alkaline earth salts” (Henning Berlin GmbH Chemie- und Pharmawerk, priority 1988, dated 1994)
